Assay results as given in patent publication US8269017B2, “Compounds for the treatment of proliferative disorders” (Synta Pharmaceuticals Corporation, priority 2005, dated 2012).
Entries after “also recorded” stand apart in the source; their conditions may differ. Where two headings read alike, the source gives them in different places.

Tests used:
SB cells = experiment: Induction of apoptosis in SB cells (Annexin V/PI, FACS); type: cell-based; conditions: 24 h; for % Apoptotic Cells Gated: 1 μM; for cytotoxicity at 1 µM: read-out: % Dead Cells Gated; for viability at 1 µM: read-out: % Live Cells Gated
Procedure: SB cells (2×10^5 cells/mL) were cultured in 12-well plates (2 mL/well) and were left untreated (negative control), treated with Taxol (positive control), or treated with a compound of the invention for 24 h at 37° C. After treatment, the cells were washed one time with 1×PBS and stained with FITC labeled anti-Annexin V and PI (10 μg/ml) for 15 min at room temperature. The cells were analyzed by FACSCalibur (Becton Dickinson).

MDA-435 cells = experiment: Cell cycle analysis in MDA-435 cells; type: cell-based, human; conditions: 20 h, Taxol 30 nM, Comp. 1 100 nM, Comp. 2 500 nM, Comp. 3 10 nM, Comp. 6 800 mM (so in the source), Comp. 46 50 nM
Procedure: MDA-435 cells were cultured in 6-well plates at 1×10^6 cells/well and were untreated (negative control), treated with Taxol (positive control), or treated with a compound of the invention at 37° C. for 20 h. The cells were detached with 1× trypsin and washed one time with PBS. Cycle TEST PLUS kit (BD PharMingen, Cat #340242) was used to stain the cells. Cell cycle was analyzed with FACScomp program (BS PharMingen).

MDA-435 = experiment: Cytotoxicity in MDA-435 tumor cells (Cell Counting Kit 8); type: cell-based; conditions: Homo sapiens, MDA435, MDA-435 cells, 70 h
Procedure: Tumor cell line, MDA-435, was seeded in 96-well plates at 1×10^4 cells/well in DMEM medium and treated with compounds at different concentrations. Taxol was used as a positive control. The cells were incubated at 37° C. for 70 h. Viability of the cells was measured with Cell Counting Kit 8 (Dojindo, Cat #CK04). IC50 of the compounds was determined by Five-Parameter Logistic equation.

[1] = system: α-tubulin-YFP labeled microtubules in MCF7-α-tubulin-YFP cells; experiment: Inhibition of tubulin polymerization in α-tubulin-YFP expressing cells (fluorescence imaging); type: cell-based
Procedure: Living cells were examined using a fluorescent microscope for α-tubulin-YFP expression.
CHO-α-tubulin-YFP or MCF7-α-tubulin-YFP cells were cultured in 2-well chambered cover-slips (Labtek (Campbell, Calif.) or Fisher Scientific) for 24 hours before treatment with a compound of the invention. For comparison of the effects of treatment on α-tubulin-YFP labeled microtubules with the compounds of the invention, CHO-α-tubulin-YFP or MCF7-α-tubulin-YFP cells were treated with the a compound of the invention, Taxol or equivalent concentrations of DMSO-containing media for various time periods before imaging. Tubulin-YFP fluorescence in living cells or fixed cells was captured using a standard filter for FITC and objectives of 20× or 60× magnification on a Nikon TE300 microscope with a Leica DC50 color digital camera (Leica, Bannockburn, Ill.) or a CoolSnap HQ monochrome CCD camera (Photonetrics, Tucson, Ariz.). The Leica DC50 and CoolSnapHQ cameras were controlled with Leica DC50 software and MetaVue/MetaMorph software, respectively (Universal Imaging Corp, Downingtown, Pa.).

MES-SA (uterine sarcoma) = experiment: In vitro cytotoxicity, MTS assay, MES-SA; type: cell-based, human; conditions: MES-SA (Uterine Carcinoma), 72 hours
Procedure: (§1) The in vitro cytotoxicity of the compounds of the invention was determined in the following human cell lines: HL-60 (T-cell leukemia), MDA-435 and MCF-7 (human breast carcinoma), NCI-H460 and H29 (colon carcinoma), DU145 (prostate carcinoma), and MES-SA and MES-SA/DX5 (uterine sarcoma). MES-SA is a model of uterine sarcoma, and the cell are sensitive to a number of chemotherapeutic agents including doxorubicin, dactinomycin, mitomycin C, taxol and bleomycin, but resistant to vinblastine and cisplatin. MES-SA/Dx5 was established in the presence of increasing concentrations of doxorubicin. […] All cells were purchased from ATCC.
(§2) The cell lines were maintained in RPMI1640 (GIBCO) supplemented with 10% FCS, 100 units/mL penicillin, 100 ug/ml streptomycin, and 2 mM L-glutamine. Cells were split every third day and diluted to a concentration of 2×10^5 cells/mL one day before the experiment was performed. All experiments were performed on exponentially growing cell cultures. Cell densities were 2.5×10^4 cells/mL in all experiments.
(§3) Compounds of the invention were prepared by dissolving the compound at a concentration of 10 mM in 100% DMSO. Final concentrations 10, 1, 0.1, 0.01 and 0.001 μM were obtained by diluting the stock solution directly into the tissue culture medium.

[2] = system: MES-SA/DX5 (uterine sarcoma, MDR-1); experiment: cells; type: cell-based; conditions: Homo sapiens, MES/DX5 (MDR-1), MTS assay
Procedure: as §1, §2, §3

[3] = system: MCF-7 (human breast carcinoma); experiment: In vitro cytotoxicity, MTS assay, MCF-7; type: cell-based; conditions: MCF7, MCF-7 (Breast Cancer), 72 hours
Procedure: as §1, §2, §3

[4] = system: MDA-435 (human breast carcinoma); experiment: In vitro cytotoxicity, MTS assay, MDA-435; type: cell-based; conditions: MDA435, MDA-435 (Breast Cancer), 72 hours
Procedure: as §1, §2, §3

H29 (colon carcinoma) = experiment: In vitro cytotoxicity, MTS assay, H29; type: cell-based; conditions: Homo sapiens, 72 hours
Procedure: as §1, §2, §3

[5] = system: DU145 (prostate carcinoma); experiment: In vitro cytotoxicity, MTS assay, DU145; type: cell-based; conditions: Homo sapiens, DU-145, 72 hours
Procedure: as §1, §2, §3

HL-60 (T-cell leukemia) = experiment: In vitro cytotoxicity, MTS assay, HL-60; type: cell-based, human; conditions: 72 hours
Procedure: as §1, §2, §3

[6] = system: NCI-H460 (colon carcinoma); experiment: In vitro cytotoxicity, MTS assay, NCI-H460; type: cell-based; conditions: Homo sapiens, 72 hours
Procedure: as §1, §2, §3

[7] = system: human tumor cell line MDA-MB-435S; experiment: Nude mouse xenograft, MDA-MB-435S (Example 10); type: in vivo
Procedure: (§4) Seven to eight week old, female Crl:CD-1-nuBR (nude) mice were obtained from Charles River Laboratories (Wilmington, Mass., USA). Animals were housed 4-5/cage in micro-isolators, with a 12 hr/12 hr light/dark cycle, acclimated for at least 1 week prior to use and fed normal laboratory chow ad libitum. Studies were conducted on animals between 8 and 10 weeks of age at implantation. To implant MDA-MB-4355 tumor cells into nude mice, the cells were trypsinized as above, washed in PBS and resusupended at a concentration of 50×10(6) cells/ml in PBS. Using a 27 gauge needle and 1 cc syringe, 0.1 ml of the cell suspension was injected into the corpus adiposum of nude mice. The corpus adiposum is a fat body located in the ventral abdominal vicera in the right quadrant of the abdomen at the juncture of the os coxae (pelvic bone) and the os femoris (femur).
Tumors were then permitted to develop in vivo until the majority reached an average of 100-200 mm^3 in tumor volume, which typically required 2-3 weeks following implantation. […] Tumor volumes (V) were calculated by caliper measurement of the width (W), length (L) and thickness (T) of tumors using the following formula: V=0.5236×(L×W×T). Animals were randomized into treatment groups so that the median tumor volumes of each group were similar at the start of dosing. % T/C values, as a measure of efficacy, were determined as follows: • (i) If ΔT>0: % T/C=[…] • (ii) If ΔT<0: % T/C=(ΔT/T0)×100 • (iii) ΔT=Change in median tumor volume between start of dosing and the end of study. • (iv) ΔC=Change in median tumor volume between start of dosing and the end of study. • (v) T0=Median tumor volume at start of dosing.
(§5) Compounds were formulated in either D5W (Compounds 169 and 174) or DRD (Compound 178). For formulations in D5W, solutions of test articles were prepared by dissolving the appropriate amounts of each compound in 5% dextrose in water (Abbott Laboratories, North Chicago, Ill., USA) by sonication in an ultrasonic water bath. For formulations in DRD, stock solutions of test articles were prepared by dissolving the appropriate amounts of each compound in dimethyl sulfoxide (DMSO) by sonication in an ultrasonic water bath. Stock solutions were prepared weekly, stored at −20° C. and diluted fresh each day for dosing. A solution of 20% Cremophore RH40 (polyoxyl 40 hydrogenated castor oil; BASF Corp., Aktiengesellschaft, Ludwigshafen, Germany) in 5% dextrose in water (Abbott Laboratories, North Chicago, Ill., USA) was also prepared by first heating 100% Cremophore RH40 at 50-60° C. until liquefied and clear, diluting 1:5 with 100% D5W, reheating again until clear and then mixing well. This solution was stored at room temperature for up to 3 months prior to use. […]

[8] = Body weight change in MDA-MB-435S xenograft study (Example 10); type: in vivo, nude mouse; conditions: i.v.
Procedure: as §4
as §5, with “use. To prepare DRD formulations for daily dosing, DMSO stock solutions were diluted 1:10 with 20% Cremophore RH40.” for “use.”

[9] = MCF7-α-tubulin-YFP cells treated with 1.0 μM compound
[10] = Homo sapiens, HL-60, HL60 (Leukemia), read-out: IC50
[11] = Compound 169 at 2 mg/kg, Compound 174 at 4.55 mg/kg body weight, i.v., 1 time/week, 3 doses

Compound | % Apoptotic Cells Gated (SB cells) [%] | cytotoxicity at 1 µM (SB cells) [%] | viability at 1 µM (SB cells) [%] | Apoptotic Population (%) (MDA-435 cells) | G0/G1 Phase (%) (MDA-435 cells) | G2/M Phase (%) (MDA-435 cells) | S Phase (%) (MDA-435 cells) | IC50 (MDA-435) [nM] | IC50 (MES-SA (uterine sarcoma); Homo sapiens, read-out: IC50) [nM] | IC50 ([2]; MDR1, 72 h) [nM] | IC50 [3] [nM] | IC50 [4] [nM] | IC50 (H29 (colon carcinoma)) [nM] | IC50 [5] [nM] | IC50 (HL-60 (T-cell leukemia); [10]) [nM] | IC50 [6] [nM] | other results
COc1cc(-c2oncc2-c2ccc(Br)cc2)cc(OC)c1OC [Compound 1, 4-(4-Bromo-phenyl)-5-(3,4,5-trimethoxy-phenyl)-isoxazole] | 18.36 | 14.4 | 60.1 | 11.35 | 19.15 | 32.60 | 37.60 | 132 |  |  |  |  |  |  |  |  | Tubulin-YFP signal pattern in live cells [1, 9]: cytoplasmic pattern
CCc1cc(-c2oncc2-c2ccc(I)cc2)c(O)cc1OC [Compound 4, 4-(4-Iodo-phenyl)-5-(2-hydroxy-4-methoxy-5-ethyl-phenyl)-isoxazole] | 19.05 | 20.1 | 52.8 |  |  |  |  | 232 | 50 | 50 | 50 | 50 | 50 | 50 | 50 | 50 | 
CCc1cc(-c2oncc2-c2ccc(Br)cc2)c(O)cc1OC [Compound 6, 4-(4-Bromo-phenyl)-5-(2-hydroxy-4-methoxy-5-ethyl-phenyl)-isoxazole] | 14.17 | 17.3 | 59.2 | 10.59 | 18.45 | 35.96 | 35.55 | 461 |  |  |  |  |  |  |  |  | Tubulin-YFP signal pattern in live cells [1, 9]: cytoplasmic pattern
COc1cc(-c2oncc2-c2ccc3c(c2)OCCO3)cc(OC)c1OC [Compound 46, 4-(2,3-Dihydro-benzo[1,4]dioxin-6-yl)-5-(3,4,5-trimethoxy-phenyl)-isoxazole] | 19.04 | 17.3 | 51 | 9.88 | 19.67 | 28.18 | 37.98 | 21 | 50 | 50 | 50 | 50 | 50 | 100 | 50 | 50 | 
COc1ccc(-c2cnoc2-c2cc(OC)c(OC)c(OC)c2)cc1NC(=O)CN.Cl [Compound 169, 2-Amino-N-{2-methoxy-5-[5-(3,4,5-trimethoxy-phenyl)-isoxazol-4-yl]-phenyl}-acetamide] |  |  |  |  |  |  |  |  | 3 | 3 |  |  |  |  | 7 |  | % T/C [7, 11]: 38%; in vivo growth rate of MDA-MB-435S tumors [7, 11]: substantially inhibited tumor growth; also recorded: substantially decreased the growth rate; overt toxicity (effect on body weights) ([8]; Compound 169 at 2 and 1 mg/kg, Compound 174 at 4.55 and 2.28 mg/kg body weight, 1 time per week, 3 doses): not overtly toxic; also recorded: not associated with overt toxicity
COc1ccc(-c2cnoc2-c2cc(OC)c(OC)c(OC)c2)cc1OP(=O)(O)O [Compound 178, Sodium 2-methoxy-5-[5-(3,4,5-trimethoxy-phenyl)-isoxazol-4-yl)-phenyl phosphate] |  |  |  |  |  |  |  |  |  |  |  |  |  |  |  |  | efficacy on in vivo growth of MDA-MB-435S tumors ([7]; i.v. 3 times per week, dose escalation: 3 doses at 25, 3 at 37.5, 3 at 50 mg/kg, efficacy at 37.5 and 50 mg/kg, phosphate): began to show moderate efficacy; also recorded: began to show modest efficacy; IC50 (MES-SA (uterine sarcoma); phosphate): 4 nM; overt toxicity (effect on body weights) ([8]; Compound 178 at 25, 37.5 or 50 mg/kg body weight, 3 times per week, phosphate): not overtly toxic; also recorded: not associated with overt toxicity; IC50 (HL-60 (T-cell leukemia); HL60 (Leukemia), phosphate): 22 nM
CC(=O)O[C@H]1C(=O)[C@@]2(C)[C@H]([C@H](OC(=O)c3ccccc3)[C@]3(O)C[C@H](OC(=O)[C@H](O)[C@@H](NC(=O)c4ccccc4)c4ccccc4)C(C)=C1C3(C)C)[C@]1(OC(C)=O)CO[C@@H]1C[C@@H]2O [Taxol, reference compound] | 17.84 | 12.5 | 63.7 | 16.17 | 19.12 | 32.32 | 32.93 | 16 | 5 |  | 5 | 2 | 10 | 5 | 5 | 5 | IC50 ([2]; MDR1, 72 hours, read-out: IC50): 10000 nM; Tubulin-YFP signal pattern in live cells ([1]; MCF7-α-tubulin-YFP cells treated with 0.1 μM Taxol): microtubule bundle formation
